Measured values from US5504097A, “N-hydroxyureas as 5-lipoxygenase inhibitors and inhibitors of oxidative modification of low density lipoprotein” (American Home Products Corporation, priority 1995, dated 1996).

What was measured:
5-Lipoxygenase = target: T1, 5-Lipoxygenase (Homo sapiens, UniProt P09917); test: Inhibition of 5-Lipoxygenase in Human Whole Blood (LTB4, calcium ionophore A23187); format: cell-based; settings: 1 μM
T1 construct: from tissue; host or cells: whole blood of male human donors (endogenous enzyme of the leukocytes)
T1 sequence (P09917 1-674): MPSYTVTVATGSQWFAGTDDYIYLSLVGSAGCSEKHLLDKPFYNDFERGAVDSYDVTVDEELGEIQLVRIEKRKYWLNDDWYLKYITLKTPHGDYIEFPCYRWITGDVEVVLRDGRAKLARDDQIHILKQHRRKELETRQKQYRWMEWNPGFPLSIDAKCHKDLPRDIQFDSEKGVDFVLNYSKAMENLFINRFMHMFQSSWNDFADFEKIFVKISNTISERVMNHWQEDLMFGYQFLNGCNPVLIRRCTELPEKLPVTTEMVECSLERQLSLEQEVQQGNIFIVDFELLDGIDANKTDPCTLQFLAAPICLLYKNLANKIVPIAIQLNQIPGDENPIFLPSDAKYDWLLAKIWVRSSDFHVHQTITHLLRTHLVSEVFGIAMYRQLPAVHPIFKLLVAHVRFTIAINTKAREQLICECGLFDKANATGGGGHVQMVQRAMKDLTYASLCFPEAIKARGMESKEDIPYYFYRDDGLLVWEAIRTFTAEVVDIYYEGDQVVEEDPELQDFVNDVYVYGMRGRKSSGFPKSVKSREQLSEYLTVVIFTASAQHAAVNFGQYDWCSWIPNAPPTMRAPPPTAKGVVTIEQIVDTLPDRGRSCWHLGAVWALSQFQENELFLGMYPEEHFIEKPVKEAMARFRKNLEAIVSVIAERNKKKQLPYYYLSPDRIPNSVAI
Experimental: 1. Inhibition of 5-Lipoxygenase in Human Whole Blood
Blood is obtained in 50-100 ml quantities from male donors. White blood cell counts and differentials are made. Two ml of blood are placed in a 15 ml polypropylene test tube. Test compounds are solubilized in dimethylsulfoxide and diluted in 1:10 in 10% bovine serum albumin in phosphate buffered saline, pH 7.4 resulting in a final dimethylsulfoxide concentration of 0.1% in the blood. Then, solutions of test compounds are added to the blood in a shaking water bath at 37° C. for 10 minutes prior to the addition of 30 μM calcium ionophore (A23187, Sigma). After ionophore administration, whole blood samples are mixed and incubated for 20 minutes at 37° C. in a shaking water bath. Incubation is terminated by placing samples in an ice bath and immediately adding ethylene glycol-bis-(β-aminoethyl ether)-N, N,N',N'-tetraacetic acid (10 mM). Samples are mixed and centrifuged at 1200× g for 15 minutes at 4° C. Preparation of samples for evaluation by RIA or ELISA is carried out by the following protocol. Plasma is removed from sample tubes, placed in 15 ml polypropylene test tubes containing 8 ml methanol, and then vortexed to precipitate protein. Samples are stored at -70° C. overnight. The next day, samples are centrifuged at 200× g for 15 minutes at 4° C. to pellet the precipitate. Samples are dried in a Savant SpeedVac Concentrator, Model SVC 200H, reconstituted to original volume with ice cold RIA or ELISA buffer, and stored at -70° C. until assayed. The assay for eicosanoids (LTB4, T×B2, and PGE2) is performed as described by the manufacturer of the ^3 H!-RIA kit or ELISA kit (LTB4 -Amersham, T×B2 and PGE2 -Caymen Chemical).
The total eicosanoid level in 2 ml of blood is calculated and reported as ng/10^6 neutrophils. Significance is determined by a one-way analysis of variance with least significant difference (LSD) comparisons to control (p≤0.05) and IC50 's (μM) are determined by regression analysis (Finney, 1978). Drug effects are expressed as percent change from control values.

Low Density Lipoprotein = test: Inhibition of Copper Ion Mediated Oxidation of Low Density Lipoprotein; format: biochemical; settings: Cu^+2 mediated oxidation of rabbit or monkey LDL
Experimental: 5. Inhibition of Copper Ion Mediated Oxidation of Low Density Lipoprotein
In this in vitro assay, the inhibition of Cu^+2 mediated oxidation of rabbit or monkey LDL by an invention compound is determined spectrophotometricallly. Oxidation of LDL results in the formation of LDL-diene which absorbs light at 532 nm. Inhibition of oxidation of LDL leads to a decrease in absorbance at 532 nm.
Rabbit or monkey LDL is prepared according to the procedures of Havel, Eder and Gragdon, "The Distribution and Chemical Composition of Ultracentrifugally Separated Lipoproteins in Human Serum,: J, Clin. Invest. 34, 1345-1353 (1955) and Parhtasarathy, Wieland and Steriberg, "A Role for Endothelial Cell Lipoxygenase in the Oxidative Modification of Low Density Lipoprotein," Proc, Natl. Acad. Sci. USA 86, 1046-1050 (1989). Test compound solutions are prepared by dissolving the invention compounds in ethanol at concentrations up to 248 μM. The medium used is Dulbecco's phosphate buffered saline containing 0.5 mg/ml bovine serum albumin. For standards, 0 to 10 μl of an aqueous solution of 1,1,3,3-tetraethoxypropane (1 μmol/ml H2 O) in 4.1 ml of medium is used.
Test compound solution (100 μl) is added to 4 ml of medium in incubation tubes. To each tube is added 10 μl of LDL solution and 25 μl of aqueous copper sulfate solution (1.32 mg/ml H2 O ). The tubes are incubated at 37° C. for 90 minutes and the oxidation reaction quenched by addition of 1 ml of thiobarbituric acid solution (0.67% in 50% acetic acid). The tubes are heated at 90° C. for 1 hour, then chilled in an ice bath and the chromophore extracted into 2 ml of n-butanol. Absorbence is read at 532 nm and the results are reported as nmols of malondialdehyde equivalents.
Significant differences (p<0.05) are determined by the Dunnett T-test or by the Student-Newman-Keuls Test for significant differences between means. The assay is conducted using several concentrations I! of the inhibitor test compounds. The LDL solution concentrations at different experiments were either 1.5 mg/ml, 2.5 mg/ml or 10.3 mg/ml. The IC50 is determined by non-linear regression, plotting log I! vs. % inhibition. (Reference: K. Yagi, Biochemical Medicine 15, 212-216 (1976)).

Row | inhibition at 1 µM (5-Lipoxygenase) [%] | IC50 (Low Density Lipoprotein) [nM] | SMILES
1 | 50 | 1100 | Cc1oc(-c2ccccc2)nc1COc1ccc(CN(O)C(N)=O)cc1 [Example 1, 1-Hydroxy-1-4-(5-methyl-2-phenyl-oxazol-4-ylmethoxy)-benzyl!-urea]
2 | 34 |  | Cc1oc(-c2ccc(C(F)(F)F)cc2)nc1COc1ccc(CN(O)C(N)=O)cc1 [Example 6, 1-Hydroxy-1-4-5-methyl-2-(4-trifluoromethyl-phenyl)-oxazol-4-ylmethoxy!-benzyl!-urea]
3 | 58 |  | NC(=O)N(O)Cc1ccc(OCc2coc(-c3ccccc3)n2)cc1 [Example 9, 1-Hydroxy-1-4-(2-phenyl-oxazol-4-ylmethoxy)-benzyl!-urea]
4 | 44 |  | NC(=O)N(O)Cc1ccc(OCc2csc(-c3ccccc3)n2)cc1 [Example 10, 1-Hydroxy-1-4-(2-phenyl-thiazol-4-ylmethoxy)-benzyl!-urea]
